Assay results as given in patent publication US10570116B2, “1,4-dicarbonyl-piperidyl derivatives” (Merck Patent GmbH, priority 2015, dated 2020).

Columns and labels:
TNKS2 = TNKS2 (Homo sapiens (Human), UniProt Q9H2K2); assay: biochemical; format: biochemical; details: GST-tagged Tnks-2 (873-1166 aa); read-out: IC50 [M] TNKS2 ELISA
PARP-1 = PARP-1 (Homo sapiens (Human), UniProt P09874); assay: Biochemical activity testing of PARP-1: autoparsylation assay (HTRF); details: His-tagged Parp-1, autoparsylation HTRF
Chain of PARP-1 (P09874 whole entry, the tested form may be a part): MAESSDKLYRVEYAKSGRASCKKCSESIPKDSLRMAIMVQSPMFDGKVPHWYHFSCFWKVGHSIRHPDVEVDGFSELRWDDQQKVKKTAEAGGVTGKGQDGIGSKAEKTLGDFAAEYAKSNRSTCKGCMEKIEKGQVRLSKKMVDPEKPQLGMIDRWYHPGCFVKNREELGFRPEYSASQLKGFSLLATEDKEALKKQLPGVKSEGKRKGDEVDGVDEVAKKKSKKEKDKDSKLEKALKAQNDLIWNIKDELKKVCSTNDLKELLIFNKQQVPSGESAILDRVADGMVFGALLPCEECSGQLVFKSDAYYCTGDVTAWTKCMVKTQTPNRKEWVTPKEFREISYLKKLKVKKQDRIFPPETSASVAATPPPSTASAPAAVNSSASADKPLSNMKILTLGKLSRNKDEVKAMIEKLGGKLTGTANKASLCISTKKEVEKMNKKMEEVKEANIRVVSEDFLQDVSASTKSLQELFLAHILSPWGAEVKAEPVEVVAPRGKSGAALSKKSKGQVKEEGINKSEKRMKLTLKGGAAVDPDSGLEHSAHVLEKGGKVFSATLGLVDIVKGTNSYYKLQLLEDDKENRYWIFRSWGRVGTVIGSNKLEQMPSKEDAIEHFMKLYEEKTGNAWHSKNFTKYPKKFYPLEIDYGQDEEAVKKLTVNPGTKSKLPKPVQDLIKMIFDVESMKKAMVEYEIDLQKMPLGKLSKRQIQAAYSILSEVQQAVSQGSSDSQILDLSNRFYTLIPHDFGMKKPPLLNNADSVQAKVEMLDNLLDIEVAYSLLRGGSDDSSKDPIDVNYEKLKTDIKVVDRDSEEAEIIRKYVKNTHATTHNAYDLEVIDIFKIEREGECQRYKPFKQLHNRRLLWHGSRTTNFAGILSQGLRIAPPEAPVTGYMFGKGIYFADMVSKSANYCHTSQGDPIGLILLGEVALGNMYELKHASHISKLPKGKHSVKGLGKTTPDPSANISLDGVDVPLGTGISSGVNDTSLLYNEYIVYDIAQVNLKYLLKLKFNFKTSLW

TNKS1 = TNKS1 (Homo sapiens (Human), UniProt O95271); assay: biochemical; format: biochemical; details: GST-tagged Tnks-1 (1023-1327 aa); read-out: IC50 [M] TNKS1 ELISA
Tankyrases = assay: Measurement of cellular inhibition of Tankyrase (Axin2 level, Luminex based assay, DLD1 cells); format: cell-based; details: increase of Axin2 level, 24 hours, read-out: EC50 [M] TNKS cellular assay
DLD-1-cancer cells = details: Huang et al., 2009; cited from earlier work
Tankyrase = details: prior art value; read-out: cellular assay: EC50; cited from earlier work

## Cn1cc(C(=O)C2CCN(C(=O)CC(C)(C)Cc3nc4c(ccn4C)c(=O)[nH]3)CC2)cn1 [Compound C17, 2-{2,2-Dimethyl-4-[4-(1-methyl-1H-pyrazole-4-carbonyl)-piperidin-1-yl]-4-oxo-butyl}-7-methyl-3,7-dihydro-pyrrolo[2,3-d]pyrimidin-4-one]
TNKS2
  IC50: 3.3e-10 M
PARP-1
  IC50: > 30000 nM
TNKS1
  IC50: 4.7e-10 M
Tankyrases
  EC50: 6.9e-09 M

## CCn1cc(C(=O)C2CCN(C(=O)CC(C)(C)Cc3nc4c(ccn4C)c(=O)[nH]3)CC2)cn1 [Compound C18, 2-{4-[4-(1-Ethyl-1H-pyrazole-4-carbonyl)-piperidin-1-yl]-2,2-dimethyl-4-oxo-butyl}-7-methyl-3,7-dihydro-pyrrolo[2,3-d]pyrimidin-4-one]
TNKS2
  IC50: 3.6e-10 M
PARP-1
  IC50: > 30000 nM
TNKS1
  IC50: 5.8e-10 M
Tankyrases
  EC50: 2.8e-09 M

## Cn1cc(C(=O)C2CCN(C(=O)CC(C)(C)Cc3nc4c(cnn4C)c(=O)[nH]3)CC2)cn1 [Compound C20, 6-{2,2-Dimethyl-4-[4-(1-methyl-1H-pyrazole-4-carbonyl)-piperidin-1-yl]-4-oxo-butyl}-1-methyl-1,5-dihydro-pyrazolo[3,4-d]pyrimidin-4-one]
TNKS2
  IC50: 7.3e-10 M
PARP-1
  IC50: > 30000 nM
TNKS1
  IC50: 9.2e-10 M
Tankyrases
  EC50: 1.9e-08 M

## COc1ccc(C(=O)C2CCN(C(=O)CC(C)(C)Cc3nc4c(cnn4C)c(=O)[nH]3)CC2)cn1 [Compound C21, 6-{4-[4-(6-Methoxy-pyridine-3-carbonyl)-piperidin-1-yl]-2,2-dimethyl-4-oxo-butyl}-1-methyl-1,5-dihydro-pyrazolo[3,4-d]pyrimidin-4-one]
TNKS2
  IC50: 2.1e-09 M
PARP-1
  IC50: > 30000 nM
TNKS1
  IC50: 3.6e-09 M
Tankyrases
  EC50: 1.6e-08 M

## COc1ncc(C(=O)C2CCN(C(=O)CC(C)(C)Cc3nc4c(cnn4C)c(=O)[nH]3)CC2)cc1C [Compound C22, 6-{4-[4-(6-Methoxy-5-methyl-pyridine-3-carbonyl)-piperidin-1-yl]-2,2-dimethyl-4-oxo-butyl}-1-methyl-1,5-dihydro-pyrazolo[3,4-d]pyrimidin-4-one]
TNKS2
  IC50: 1.8e-09 M
PARP-1
  IC50: > 30000 nM
TNKS1
  IC50: 2.2e-09 M
Tankyrases
  EC50: 7.9e-09 M

## COC(=O)c1ccc(C(=O)C2CCN(C(=O)CC(C)(C)Cc3nc4ccccc4c(=O)[nH]3)CC2)cc1 [Compound C32, 4-{1-[3,3-Dimethyl-4-(4-oxo-3,4-dihydro-quinazolin-2-yl)-butyryl]-piperidine-4-carbonyl}-benzoic Acid Methyl Ester]
TNKS2
  IC50: 5.6e-10 M
TNKS1
  IC50: 6.8e-10 M
Tankyrases
  EC50: 1.1e-07 M

## CC(C)(CC(=O)N1CCC(C(=O)c2ccc(C(=O)O)cc2)CC1)Cc1nc2ccccc2c(=O)[nH]1 [Compound C33, 4-{1-[3,3-Dimethyl-4-(4-oxo-3,4-dihydro-quinazolin-2-yl)-butyryl]-piperidine-4-carbonyl}-benzoic Acid]
TNKS2
  IC50: 4.5e-10 M
TNKS1
  IC50: 5.1e-10 M
Tankyrases
  EC50: 1.5e-07 M

## COC(=O)c1cccc(C(=O)C2CCN(C(=O)CC(C)(C)Cc3nc4ccccc4c(=O)[nH]3)CC2)c1 [Compound C34, 3-{1-[3,3-Dimethyl-4-(4-oxo-3,4-dihydro-quinazolin-2-yl)-butyryl]-piperidine-4-carbonyl}-benzoic Acid Methyl Ester]
TNKS2
  IC50: 5e-10 M
TNKS1
  IC50: 4.8e-10 M
Tankyrases
  EC50: 9.9e-09 M

## COC(=O)c1cccc(C(=O)C2CCN(C(=O)CC(C)(C)Cc3nc4c(C)cccc4c(=O)[nH]3)CC2)c1 [Compound C36, 3-{1-[3,3-Dimethyl-4-(8-methyl-4-oxo-3,4-dihydro-quinazolin-2-yl)-butyryl]-piperidine-4-carbonyl}-benzoic acid methyl ester]
TNKS2
  IC50: 2.1e-09 M
TNKS1
  IC50: 7.9e-10 M
Tankyrases
  EC50: 3.4e-09 M

## COC(=O)c1ccc(C(=O)C2CCN(C(=O)CC(C)(C)Cc3nc4ccccc4c(=O)[nH]3)CC2)cc1C [Compound C38, 4-{1-[3,3-Dimethyl-4-(4-oxo-3,4-dihydro-quinazolin-2-yl)-butyryl]-piperidine-4-carbonyl}-2-methyl-benzoic Acid Methyl Ester]
TNKS2
  IC50: 3.2e-10 M
TNKS1
  IC50: 5.8e-10 M
Tankyrases
  EC50: 9.9e-10 M

## Cc1cc(C(=O)C2CCN(C(=O)CC(C)(C)Cc3nc4ccccc4c(=O)[nH]3)CC2)ccc1C(=O)O [Compound C39, 4-{1-[3,3-Dimethyl-4-(4-oxo-3,4-dihydro-quinazolin-2-yl)-butyryl]-piperidine-4-carbonyl}-2-methyl-benzoic Acid]
TNKS2
  IC50: 6.1e-10 M
TNKS1
  IC50: 4.3e-10 M
Tankyrases
  EC50: 1.3e-07 M

## COC(=O)c1ccc(C(=O)C2CCN(C(=O)CC(C)(C)Cc3nc4c(C)cccc4c(=O)[nH]3)CC2)cc1C [Compound C40, 4-{1-[3,3-Dimethyl-4-(8-methyl-4-oxo-3,4-dihydro-quinazolin-2-yl)-butyryl]-piperidine-4-carbonyl}-2-methyl-benzoic Acid Methyl Ester]
TNKS2
  IC50: 4.7e-09 M
TNKS1
  IC50: 1.5e-09 M
Tankyrases
  EC50: 2.9e-09 M

## Cc1cc(C(=O)C2CCN(C(=O)CC(C)(C)Cc3nc4c(C)cccc4c(=O)[nH]3)CC2)ccc1C(=O)O [Compound C41, 4-{1-[3,3-Dimethyl-4-(8-methyl-4-oxo-3,4-dihydro-quinazolin-2-yl)-butyryl]-piperidine-4-carbonyl}-2-methyl-benzoic Acid]
TNKS2
  IC50: 8.8e-10 M
TNKS1
  IC50: 5.9e-10 M
Tankyrases
  EC50: 1.1e-08 M

## Cc1cc(F)cc2c(=O)[nH]c(C[C@@H](C)CC(=O)N3CCC(C(=O)c4cccc(C(=O)O)c4)CC3)nc12 [Compound C46, 3-{1-[(R)-4-(6-Fluoro-8-methyl-4-oxo-3,4-dihydro-quinazolin-2-yl)-3-methyl-butyryl]-piperidine-4-carbonyl}-benzoic Acid]
TNKS2
  IC50: 2.8e-09 M
TNKS1
  IC50: 8.2e-09 M
Tankyrases
  EC50: 1e-05 M

## Cc1cc(F)cc2c(=O)[nH]c(C[C@H](C)CC(=O)N3CCC(C(=O)c4cccc(C(=O)O)c4)CC3)nc12 [Compound C47, 3-{1-[(S)-4-(6-Fluoro-8-methyl-4-oxo-3,4-dihydro-quinazolin-2-yl)-3-methyl-butyryl]-piperidine-4-carbonyl}-benzoic Acid]
TNKS2
  IC50: 2.2e-10 M
TNKS1
  IC50: 3.5e-10 M
Tankyrases
  EC50: 3e-09 M

## CN(C)Cc1ccc(C(=O)C2CCN(C(=O)CC(C)(C)Cc3nc4ccccc4c(=O)[nH]3)CC2)cc1 [Compound C48, 2-{4-[4-(4-Dimethylaminomethyl-benzoyl)-piperidin-1-yl]-2,2-dimethyl-4-oxo-butyl}-3H-quinazolin-4-one]
TNKS2
  IC50: 5.3e-09 M
TNKS1
  IC50: 1.4e-08 M
Tankyrases
  EC50: 1.3e-07 M

## Cn1cc(C(=O)C2CCN(C(=O)CC(C)(C)Cc3cc4ccccc4c(=O)[nH]3)CC2)cn1 [Compound C49, 3-{2,2-Dimethyl-4-[4-(1-methyl-1H-pyrazole-4-carbonyl)-piperidin-1-yl]-4-oxo-butyl}-2H-isoquinolin-1-one]
TNKS2
  IC50: 2.1e-10 M
TNKS1
  IC50: 3e-10 M
Tankyrases
  EC50: 1.3e-09 M

## C[C@H](CC(=O)N1CCC(C(=O)c2cnn(C)c2)CC1)Cc1cc2ccccc2c(=O)[nH]1 [Compound C50, 3-{(S)-2-Methyl-4-[4-(1-methyl-1H-pyrazole-4-carbonyl)-piperidin-1-yl]-4-oxo-butyl}-2H-isoquinolin-1-one]
TNKS2
  IC50: 2.4e-10 M
TNKS1
  IC50: 4.4e-10 M
Tankyrases
  EC50: 6.8e-10 M

## C[C@@H](CC(=O)N1CCC(C(=O)c2cnn(C)c2)CC1)Cc1cc2ccccc2c(=O)[nH]1 [Compound C51, 3-{(R)-2-Methyl-4-[4-(1-methyl-1H-pyrazole-4-carbonyl)-piperidin-1-yl]-4-oxo-butyl}-2H-isoquinolin-1-one]
TNKS2
  IC50: 7.2e-10 M
TNKS1
  IC50: 1e-09 M
Tankyrases
  EC50: 1.2e-08 M

## CC(C)(CC(=O)N1CCC(C(=O)c2ccc(C(=O)O)cc2)CC1)Cc1cc2ccccc2c(=O)[nH]1 [Compound C52, 4-{1-[3,3-Dimethyl-4-(1-oxo-1,2-dihydro-isoquinolin-3-yl)-butyryl]-piperidine-4-carbonyl}-benzoic Acid]
TNKS2
  IC50: 2.5e-10 M
TNKS1
  IC50: 3.3e-10 M
Tankyrases
  EC50: 8e-08 M

## CC(C)(CC(=O)N1CCC(C(=O)c2cccc(C(=O)O)c2)CC1)Cc1cc2ccccc2c(=O)[nH]1 [Compound C53, 3-{1-[3,3-Dimethyl-4-(1-oxo-1,2-dihydro-isoquinolin-3-yl)-butyryl]-piperidine-4-carbonyl}-benzoic Acid]
TNKS2
  IC50: 6.9e-10 M
TNKS1
  IC50: 1.1e-09 M
Tankyrases
  EC50: 8.7e-07 M

## Oc1nc(-c2ccc(C(F)(F)F)cc2)nc2c1CSCC2 [XAV939]
DLD-1-cancer cells
  growth of DLD-1-cancer cells: inhibits growth

## COc1ccc(C(=O)C2CCN(CC(=O)N(Cc3nc4c(c(=O)[nH]3)COCC4)CC3CC3)CC2)cc1 [benzoylpiperidine derivative]
Tankyrase
  EC50: 35 nM
